In EP0181129B1, “N6-substituted deoxyribose analogs of adenosines” (WARNER-LAMBERT COMPANY, priority 1984, dated 1986):
Where “and” joins values, the source holds several entries; their conditions need not be identical. Equal values may be shown once.

Tested on: Swiss-Webster male mice
Test: Mouse Activity and Screen Test Procedure (MAST)
Assay type: in vivo
Settings: for Inhibition of Mouse Locomotor Activity: one hour prior to testing; for Screen Test Failure: percent of mice falling off the screen
Text: The compounds of the invention are new chemical substances which are useful as pharmaceutical agents for the treatment of psychoses. The antipsychotic activity of representative compounds of the invention was established by the Mouse Activity and Screen Test Procedure (MAST) described below.
Nine unfasted Swiss-Webster male mice weighing 20-30 g are equally divided into three groups for each drug dose to be tested. That is, data for each dose level was generated by three separate groups of three mice each.
A minimum of three dose levels (10, 30, and 100 mg/kg) are tested for each drug. Treatments are administered intraperitoneally one hour prior to testing. All dosages are calculated as parent compound and given in volumes of 10 ml/kg. Compounds are dissolved or suspended in 0.2% Methocel. Control animals are injected with Methocel.
A two part testing procedure is started one hour post injection. First, the screen test (ST) is performed (see Pharmac. Biochem. Behav. 6, 351-353, 1977). Briefly this test consists of placing mice on individual wire screens which are then rotated 180 degrees at the start of a 60 second observation period. The number of mice falling off the inverted screen is recorded.
Immediately following the screen test, the final phase of testing is initiated by placing each group of three mice in one actophotometer (Life Sciences, 22,1067-1076,1978). The actophotometer consists of a cylindrical chamber whose center is occupied by another cylinder which contains the illumination for six photocells located on the perimeter of the chamber. Six light-beam interruptions equal one count. Locomotor activity is recorded by computer at ten minutes intervals for 60 minutes.
The data obtained from the screen test are expressed as percent of mice falling off the screen. Data derived from locomotor activity of drug treated mice are compared to the activity of vehicle treated animals and are expressed as percent inhibition of spontaneous locomotion. All percentages reported for inhibition of locomotion (LI) are based upon data accumulated for one hour. Both phases of testing are graded: A=60-100%; C=31-59%; and N=0-30%. An overall dose rating is obtained by the following criteria:
LAD refers to the lowest dose at which an A rating is achieved. […] Utilizing this procedure, an overall dose rating of A was obtained for the noted compound at the indicated dose. The compounds are identified in the Examples.

[1] = Dose 0.3 mg/kg intraperitoneally
[2] = Dose 10 mg/kg intraperitoneally
[3] = Dose 30 mg/kg intraperitoneally

Screen Test Failure [1] [%] | Screen Test Failure (Dose 1 mg/kg intraperitoneally) [%] | Screen Test Failure (Dose 3 mg/kg intraperitoneally) [%] | Screen Test Failure [2] [%] | Screen Test Failure [3] [%] | SMILES | Inhibition of Mouse Locomotor Activity [1] [%] | Inhibition of Mouse Locomotor Activity (Dose 1 mg/kg intraperitoneally, 1 mg/kg) | Inhibition of Mouse Locomotor Activity (Dose 3 mg/kg intraperitoneally) [%] | Inhibition of Mouse Locomotor Activity [2] [%] | Inhibition of Mouse Locomotor Activity [3] [%]
0 | 0 | 0 | 0 | 0 | O[C@@H]1[C@H](O)[C@@H](CCl)O[C@H]1n1cnc2c(NC3CCc4ccccc43)ncnc21 (stereo partly drawn) [Example 23, (R)-N^6(1-Indanyl)-5'-deoxy-5'-chloroadenosine] | −2 | 0% and 7% | 48 | 76 | 81
 |  | 0 | 0 | 0 | C[C@H]1O[C@@H](n2cnc3c(NCc4cccc5ccccc45)ncnc32)[C@H](O)[C@@H]1O [Example 20, N^6-α-Naphthylmethyl-5' -deoxyadenosine] |  |  | −1 | 49 | 81

SMILES | Screen Test Failure [1] [%] | Screen Test Failure (Dose 1 mg/kg intraperitoneally) [%] | Screen Test Failure (Dose 3 mg/kg intraperitoneally) [%] | Screen Test Failure [2] [%] | Screen Test Failure [3] [%] | Inhibition of Mouse Locomotor Activity [1] [%] | Inhibition of Mouse Locomotor Activity (Dose 1 mg/kg intraperitoneally, 1 mg/kg) | Inhibition of Mouse Locomotor Activity (Dose 3 mg/kg intraperitoneally) [%] | Inhibition of Mouse Locomotor Activity [2] [%] | Inhibition of Mouse Locomotor Activity [3] [%]
C[C@H]1O[C@@H](n2cnc3c(NC4CCCc5ccccc54)ncnc32)[C@H](O)[C@@H]1O (stereo partly shown) [Example 19, N^6-1-Tetralinyl-5' -deoxyadenosine] |  |  | 11 | 0 | 0 |  |  | 36 | 55 | 83
